In patent US6706740B2, “Fungicidal heterocyclic aromatic amides and their compositions, methods of use and preparation” (Dow AgroSciences LLC, priority 1999, dated 2004):

Assays:
[1] = test system: Magnaporthe grisea (Pyricularia oryzae—PYRIOR); assay: microbe, parasite or virus in culture; type: cell-based; details: Pyricularia oryzae, read-out: PYRIOR in vitro Growth Inhibition
[2] = test system: Rhizoctonia solani (RHIZSO); assay: microbe, parasite or virus in culture; type: cell-based; details: Rhizoctonia solani, read-out: RHIZSO in vitro Growth Inhibition
[3] = test system: Mycosphaerella graminicola (Septoria tritici—SEPTTR); assay: In vitro fungal growth inhibition, Mycosphaerella graminicola (SEPTTR); type: cell-based; details: Zymoseptoria tritici; 25 ppm in growth medium; read-out: SEPTTR in vitro Growth Inhibition
[4] = test system: Stagonospora nodorum (Leptosphaeria nodorum—LEPTNO); assay: In vitro fungal growth inhibition, Stagonospora nodorum (LEPTNO); type: cell-based; details: Leptosphaeria; 25 ppm in growth medium; read-out: LEPTNO in vitro Growth Inhibition
[5] = test system: Ustilago maydis (USTIMA); assay: microbe, parasite or virus in culture; type: cell-based; details: Mycosarcoma maydis, read-out: USTIMA in vitro Growth Inhibition
[6] = test system: Phytophthora infestans (PHYTIN); assay: microbe, parasite or virus in culture; type: cell-based; details: Phytophthora infestans, read-out: PHYTIN in vitro Growth Inhibition
[7] = test system: Phytophthora infestans—PHYTIN; assay: whole plant or invertebrate; type: in vivo; details: Phytophthora, in Solanum lycopersicum, 24 h, read-out: PHYTIN in vivo 1 Day Protectant
[8] = test system: Puccinia recondita—PUCCRT; assay: Brown Rust of Wheat, in vivo whole plant, 24 Hour Protectant; details: 100 ppm spray, 24 hour protectant, wheat, control of fungal infection vs untreated plants; for pest or weed control at 100 ppm: Puccinia, read-out: PUCCRT in vivo 1 Day Protectant
[9] = test system: Erysiphe graminis—ERYSGT; assay: Powdery Mildew of Wheat, in vivo whole plant, 24 Hour Protectant; details: Erysiphe; 100 ppm spray, 24 hour protectant, wheat; control of fungal infection vs untreated plants; read-out: ERYSGT in vivo 1 Day Protectant
[10] = test system: Septoria tritici—SEPTTR; assay: Leaf Blotch of Wheat, in vivo whole plant, 24 Hour Protectant; details: Zymoseptoria tritici, 24 h, 100 ppm spray, 24 hour protectant, wheat; control of fungal infection vs untreated plants; read-out: SEPTTR in vivo 1 Day Protectant
[11] = test system: Leptosphaeria nodorum—LEPTNO; assay: Glume Blotch of Wheat, in vivo whole plant, 24 Hour Protectant; details: 100 ppm spray, 24 hour protectant, wheat, control of fungal infection vs untreated plants; for pest or weed control at 100 ppm: Leptosphaeria, read-out: LEPTNO in vivo 1 Day Protectant

Row | Structure (SMILES) | inhibition at 25 ppm [1] [%] | inhibition at 25 ppm [2] [%] | inhibition at 25 ppm [3] [%] | inhibition at 25 ppm [4] [%] | inhibition at 25 ppm [5] [%] | inhibition at 25 ppm [6] [%] | pest or weed control at 100 ppm [7] [%] | pest or weed control at 100 ppm [8] [%] | pest or weed control at 100 ppm [9] [%] | pest or weed control at 100 ppm [10] [%] | pest or weed control at 100 ppm [11] [%] | melting point [°C] | PUCCRT in vivo 1 Day Protectant [8] | LEPTNO in vivo 1 Day Protectant [11]
1 | O=C(NCc1cccc(Cl)c1)c1ncccc1O [Compound 219] | > 80 | > 80 | > 80 | > 80 | > 80 | > 80 | < 25 | < 25 | < 25 | < 25 | < 25 | 65 to 67 |  | 
2 | O=C(NCc1ccc(Cl)cc1)c1ncccc1O [Compound 220] | > 80 | > 80 | > 80 | > 80 | > 80 | > 80 | 25 to 74 | < 25 | < 25 | < 25 | < 25 | 95 to 97 |  | 
3 | O=C(NCc1ccc(Cl)c(Cl)c1)c1ncccc1O [Compound 221] | > 80 | < 80 | > 80 | < 80 | < 80 | > 80 | < 25 | < 25 | < 25 | < 25 | < 25 | 100 to 101 |  | 
4 | Cc1ccc(CNC(=O)c2ncccc2O)cc1 [Compound 223] | > 80 | < 80 | < 80 | > 80 | > 80 | > 80 | < 25 | < 25 | < 25 | < 25 | < 25 | 83 to 84 |  | 
5 | COc1ccccc1CNC(=O)c1ncccc1O [Compound 224] | > 80 | < 80 | < 80 | < 80 | < 80 | < 80 | < 25 | < 25 | < 25 | < 25 | < 25 | 75 to 76 |  | 
6 | COc1cccc(CNC(=O)c2ncccc2O)c1 [Compound 225] | < 80 | < 80 | < 80 | < 80 | < 80 | > 80 | < 25 | < 25 | < 25 | < 25 | < 25 | 41 to 43 |  | 
7 | COc1ccc(CNC(=O)c2ncccc2O)cc1 [Compound 226] | < 80 | < 80 | < 80 | < 80 | < 80 | > 80 | < 25 | < 25 | 25 to 74 | < 25 | < 25 | 96 to 97 |  | 
8 | COc1cccc(CNC(=O)c2ncccc2O)c1OC [Compound 227] | < 80 | < 80 | < 80 | < 80 | < 80 | > 80 | < 25 | < 25 | < 25 | < 25 | < 25 | 78 to 79 |  | 
9 | O=C(NCc1cccc2ccccc12)c1ncccc1O [Compound 228] | < 80 | < 80 | < 80 | < 80 | < 80 | < 80 | 25 to 74 | < 25 | < 25 | < 25 | < 25 | 106 to 109 |  | 
10 | CC(NC(=O)c1ncccc1O)c1ccccc1 (stereo not drawn) [Compound 229] | > 80 | < 80 | > 80 | < 80 | < 80 | < 80 | < 25 | < 25 | < 25 | < 25 | < 25 | 89 to 91 |  | 
11 | Cc1ccnc(C(=O)NC2CC(C)(C)CC(C)(C)C2)c1O [Compound 236] | < 80 | < 80 | < 80 | > 80 | < 80 | < 80 | < 25 | < 25 | < 25 | < 25 | < 25 | 42 to 45 |  | 
12 | Cc1ccnc(C(=O)NC2COC(=O)[C@H](Cc3ccccc3)[C@@H](OC(=O)C(C)C)[C@H](C)OC2=O)c1O (stereo partly drawn) [Compound 237] | < 80 | < 80 | < 80 | < 80 | < 80 | < 80 | < 25 |  | < 25 | 25 to 74 | 25 to 74 | 122 to 134 | + + | 
13 | Cc1ccnc(C(=O)Nc2ccc(Oc3cccc(C(F)(F)F)c3)cc2)c1O [Compound 238] | < 80 | < 80 | < 80 | < 80 | < 80 | < 80 | < 25 | < 25 | < 25 | < 25 | 25 to 74 | 105 to 107 |  | 
14 | COc1ccnc(C(=O)NC(C)c2ccc(Cl)cc2)c1O (stereo not drawn) [Compound 246] | < 80 | < 80 | < 80 | < 80 | < 80 | < 80 | < 25 | < 25 | 25 to 74 | 25 to 74 |  | 140 to 142 |  | + +
15 | COc1ccnc(C(=O)NC2CC(C)(C)CC(C)(C)C2)c1O [Compound 250] | < 80 | < 80 | < 80 | > 80 | < 80 | > 80 | 25 to 74 | 25 to 74 | < 25 | < 25 | 25 to 74 | 104 to 106 |  | 
